Measured values as given in ChEMBL document CHEMBL3817816, “Improvement of the pharmacological properties of amidated kyotorphin by means of iodination” (Medchemcomm, 2016).

Key:
[1] = test system: Rattus norvegicus; test: Analgesic activity in Wistar Han rat assessed as time required to show maximal effect at 56.47 mg/kg, ip administered as single dose by hot plate test; assay type: functional
[2] = test system: Liver; test: Stability of compound in Sprague-Dawley rat liver homogenate assessed as remaining parent compound […] at 10 mins by RP-HPLC analysis; assay type: ADME; details: iv
[3] = test system: Kidney; test: Stability of compound in Sprague-Dawley rat kidney homogenate assessed as remaining parent compound at 10 mins by RP-HPLC analysis; assay type: ADME, tissue-based; details: tissue homogenate
[4] = Stability of compound in saline at 11 kBq/uL up to 1 week at 4 degC by HPLC analysis; assay type: physicochemical; details: buffer, 168 h
[5] = Octanol-PBS partition coefficient, log P of the compound at pH 7.4 by shake flask method; assay type: physicochemical
[6] = test system: Blood; test: Drug uptake in Sprague-Dawley rat blood at 11 MBq, ip after 5 mins by gamma counting assay; assay type: ADME, organism-based; details: in vivo
[7] = test system: Liver; test: Drug uptake in Sprague-Dawley rat liver at 11 MBq, ip after 5 mins by gamma counting assay; assay type: ADME, organism-based; details: in vivo
[8] = test system: Intestine; test: Drug uptake in Sprague-Dawley rat intestine at 11 MBq, ip after 5 mins by gamma counting assay; assay type: ADME, organism-based; details: in vivo
[9] = test system: Spleen; test: Drug uptake in Sprague-Dawley rat spleen at 11 MBq, ip after 5 mins by gamma counting assay; assay type: ADME, organism-based; details: in vivo
[10] = test system: Heart; test: Drug uptake in Sprague-Dawley rat heart at 11 MBq, ip after 5 mins by gamma counting assay; assay type: ADME, organism-based; details: in vivo
[11] = test system: Lung; test: Drug uptake in Sprague-Dawley rat lung at 11 MBq, ip after 5 mins by gamma counting assay; assay type: ADME, organism-based; details: in vivo
[12] = test system: Kidney; test: Drug uptake in Sprague-Dawley rat kidney at 11 MBq, ip after 5 mins by gamma counting assay; assay type: ADME, organism-based; details: in vivo
[13] = test system: Muscle tissue; test: Drug uptake in Sprague-Dawley rat muscle at 11 MBq, ip after 5 mins by gamma counting assay; assay type: ADME, organism-based; details: in vivo
[14] = test system: Femur; test: Drug uptake in Sprague-Dawley rat femur at 11 MBq, ip after 5 mins by gamma counting assay; assay type: ADME, organism-based; details: in vivo
[15] = test system: Brain; test: Drug uptake in Sprague-Dawley rat brain at 11 MBq, ip after 5 mins by gamma counting assay; assay type: ADME, organism-based; details: in vivo
[16] = test system: Thyroid gland; test: Drug uptake in Sprague-Dawley rat thyroid at 11 MBq, ip after 5 mins by gamma counting assay; assay type: ADME, organism-based; details: in vivo
[17] = test system: Stomach; test: Drug uptake in Sprague-Dawley rat stomach at 11 MBq, ip after 5 mins by gamma counting assay; assay type: ADME, organism-based; details: in vivo
[18] = test system: Blood; test: Drug uptake in Sprague-Dawley rat blood at 11 MBq, ip after 10mins by gamma counting assay; assay type: ADME, organism-based; details: in vivo
[19] = test system: Liver; test: Drug uptake in Sprague-Dawley rat liver at 11 MBq, ip after 10mins by gamma counting assay; assay type: ADME, organism-based; details: in vivo
[20] = test system: Intestine; test: Drug uptake in Sprague-Dawley rat intestine at 11 MBq, ip after 10mins by gamma counting assay; assay type: ADME, organism-based; details: in vivo
[21] = test system: Spleen; test: Drug uptake in Sprague-Dawley rat spleen at 11 MBq, ip after 10mins by gamma counting assay; assay type: ADME, organism-based; details: in vivo
[22] = test system: Heart; test: Drug uptake in Sprague-Dawley rat heart at 11 MBq, ip after 10mins by gamma counting assay; assay type: ADME, organism-based; details: in vivo
[23] = test system: Lung; test: Drug uptake in Sprague-Dawley rat lung at 11 MBq, ip after 10mins by gamma counting assay; assay type: ADME, organism-based; details: in vivo
[24] = test system: Kidney; test: Drug uptake in Sprague-Dawley rat kidney at 11 MBq, ip after 10mins by gamma counting assay; assay type: ADME, organism-based; details: in vivo
[25] = test system: Muscle tissue; test: Drug uptake in Sprague-Dawley rat muscle at 11 MBq, ip after 10mins by gamma counting assay; assay type: ADME, organism-based; details: in vivo
[26] = test system: Femur; test: Drug uptake in Sprague-Dawley rat femur at 11 MBq, ip after 10mins by gamma counting assay; assay type: ADME, organism-based; details: in vivo
[27] = test system: Brain; test: Drug uptake in Sprague-Dawley rat brain at 11 MBq, ip after 10mins by gamma counting assay; assay type: ADME, organism-based; details: in vivo
[28] = test system: Thyroid gland; test: Drug uptake in Sprague-Dawley rat thyroid at 11 MBq, ip after 10mins by gamma counting assay; assay type: ADME, organism-based; details: in vivo
[29] = test system: Stomach; test: Drug uptake in Sprague-Dawley rat stomach at 11 MBq, ip after 10mins by gamma counting assay; assay type: ADME, organism-based; details: in vivo
[30] = test system: Rattus norvegicus; test: Analgesic activity in Wistar Han rat assessed as time required to show maximal effect at 44.42 mg/kg, ip administered as single dose by hot plate test; assay type: functional
[31] = Permeability across apical to basolateral side of mouse bEND.3 cells at 37 kBq/200 uL after 10 hrs by transwell assay relative to control; assay type: ADME
[32] = Stability of compound in Sprague-Dawley rat serum assessed as remaining parent compound at 5 mins by RP-HPLC analysis; assay type: ADME; details: read-out: Stability
[33] = test system: Rattus norvegicus; test: Analgesic activity in Wistar Han rat assessed as time required to show maximal effect at 5 mg/kg, ip by hot plate test; assay type: functional

N=C(N)NCCC[C@H](NC(=O)[C@@H](N)Cc1cc([125I])c(O)c([125I])c1)C(N)=O
Time [1]: 30 min

N=C(N)NCCC[C@H](NC(=O)[C@@H](N)Cc1ccc(O)c([125I])c1)C(N)=O
Stability [2]: Unstable | Stability [3]: Unstable | Stability [4]: Stable | logD [5]: -1.8 | Drug uptake [6]: 0.5 % ID/g | Drug uptake [7]: 0.9 % ID/g | Drug uptake [8]: 1.6 % ID/g | Drug uptake [9]: 1.1 % ID/g | Drug uptake [10]: 0.26 % ID/g | Drug uptake [11]: 0.5 % ID/g | Drug uptake [12]: 0.5 % ID/g | Drug uptake [13]: 0.28 % ID/g | Drug uptake [14]: 0.22 % ID/g | Drug uptake [15]: 0.03 % ID/g | Drug uptake [16]: 2.7 % ID/g | Drug uptake [17]: 0.48 % ID/g | Drug uptake [18]: 0.68 % ID/g | Drug uptake [19]: 0.88 % ID/g | Drug uptake [20]: 1.06 % ID/g | Drug uptake [21]: 0.33 % ID/g | Drug uptake [22]: 0.32 % ID/g | Drug uptake [23]: 0.35 % ID/g | Drug uptake [24]: 0.57 % ID/g | Drug uptake [25]: 0.26 % ID/g | Drug uptake [26]: 0.27 % ID/g | Drug uptake [27]: 0.07 % ID/g | Drug uptake [28]: 0.7 % ID/g | Drug uptake [29]: 0.98 % ID/g | Time [30]: 30 min | fold change (FC) [31]: 0.49 | remaining at 5 min [32]: 72.5%

N=C(N)NCCC[C@H](NC(=O)[C@@H](N)Cc1ccc(O)cc1)C(N)=O
Time [33]: 15 min
